Measured values: ChEMBL document CHEMBL1201862, “PubChem BioAssay data set” (2004)
Active and inactive are the calls of the source.

What was measured:
Aminopeptidase N = biological target: T1, Aminopeptidase N (Plasmodium falciparum FcB1/Columbia, UniProt O96935); assay: P. falciparum M1AAP inhibitors, biochemical, fluorogenic H-Leu-NHMec substrate, 1536-well (AID 1445); design: species or system Plasmodium falciparum 3D7, 3D7
T1 sequence (O96935 whole entry): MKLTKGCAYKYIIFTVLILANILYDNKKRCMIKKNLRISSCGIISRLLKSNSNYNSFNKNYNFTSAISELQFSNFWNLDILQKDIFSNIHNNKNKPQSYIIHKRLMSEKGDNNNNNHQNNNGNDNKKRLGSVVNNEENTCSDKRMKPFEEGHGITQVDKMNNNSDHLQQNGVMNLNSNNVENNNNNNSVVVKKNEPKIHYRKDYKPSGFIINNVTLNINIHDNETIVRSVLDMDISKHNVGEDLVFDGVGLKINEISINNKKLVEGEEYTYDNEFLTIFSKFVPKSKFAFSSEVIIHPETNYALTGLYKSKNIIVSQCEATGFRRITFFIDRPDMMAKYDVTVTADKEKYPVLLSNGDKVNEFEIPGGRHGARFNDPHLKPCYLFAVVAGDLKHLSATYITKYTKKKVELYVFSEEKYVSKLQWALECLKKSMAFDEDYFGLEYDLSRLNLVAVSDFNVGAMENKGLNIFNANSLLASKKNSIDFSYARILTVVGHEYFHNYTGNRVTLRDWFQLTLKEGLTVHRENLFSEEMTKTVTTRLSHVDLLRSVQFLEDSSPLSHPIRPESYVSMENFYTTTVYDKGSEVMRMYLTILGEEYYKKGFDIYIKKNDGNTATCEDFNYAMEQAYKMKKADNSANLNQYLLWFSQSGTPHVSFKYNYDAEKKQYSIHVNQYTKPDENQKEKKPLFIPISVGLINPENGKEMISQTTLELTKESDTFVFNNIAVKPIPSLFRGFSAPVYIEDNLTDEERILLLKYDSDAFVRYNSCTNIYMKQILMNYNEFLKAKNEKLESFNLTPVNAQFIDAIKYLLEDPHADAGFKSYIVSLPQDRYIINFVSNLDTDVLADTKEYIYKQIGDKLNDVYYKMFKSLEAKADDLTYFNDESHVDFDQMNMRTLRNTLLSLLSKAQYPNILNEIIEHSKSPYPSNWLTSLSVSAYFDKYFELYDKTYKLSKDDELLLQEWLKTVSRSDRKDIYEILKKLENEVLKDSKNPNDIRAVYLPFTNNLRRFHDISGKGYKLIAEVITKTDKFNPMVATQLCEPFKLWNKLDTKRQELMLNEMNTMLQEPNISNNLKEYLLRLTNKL

Aspartyl aminopeptidase = biological target: T2, Aspartyl aminopeptidase (Plasmodium falciparum 3D7, UniProt Q8I2J3); assay: Counterscreen for inhibitors of M1 and M17 aminopeptidases: QFRET-based biochemical high throughput dose response assay for inhibitors of the Plasmodium falciparum M18 Aspartyl Aminopeptidase (PFM18AAP). [Related PubChem assays: 1619 (Screening assay (M17LAP inhibitors).), 1445 (Screening assay (M1AAP inhibitors).)]
T2 sequence (Q8I2J3 whole entry): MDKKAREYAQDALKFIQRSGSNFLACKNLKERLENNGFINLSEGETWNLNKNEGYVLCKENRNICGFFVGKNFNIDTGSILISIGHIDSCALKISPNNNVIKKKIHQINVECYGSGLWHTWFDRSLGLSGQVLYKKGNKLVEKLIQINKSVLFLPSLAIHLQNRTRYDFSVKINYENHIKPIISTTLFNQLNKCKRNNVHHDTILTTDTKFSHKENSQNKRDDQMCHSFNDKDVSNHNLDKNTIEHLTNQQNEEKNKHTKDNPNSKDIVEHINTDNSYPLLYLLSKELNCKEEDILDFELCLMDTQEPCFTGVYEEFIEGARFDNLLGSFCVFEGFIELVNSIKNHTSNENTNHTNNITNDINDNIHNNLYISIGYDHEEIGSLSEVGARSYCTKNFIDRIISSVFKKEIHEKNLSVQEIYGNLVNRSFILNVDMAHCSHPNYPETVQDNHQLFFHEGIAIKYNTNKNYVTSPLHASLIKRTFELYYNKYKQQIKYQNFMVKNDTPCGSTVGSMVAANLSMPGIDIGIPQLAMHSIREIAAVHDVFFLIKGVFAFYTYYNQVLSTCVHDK

Procathepsin L = Procathepsin L (Homo sapiens, UniProt P07711); assay: cathepsin L inhibitors, dose response, counter-screen for M1/M17 aminopeptidase inhibitor project, biochemical, QFRET, 1536-well (AID 2214)
[1] = inhibitors of Vif binding to APOBEC3G peptide, primary screen, biochemical, TR-FRET, GST-Vif 1-94, biotin-A3G peptide, dose response retest (AID 1117319); format: functional;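 note: TR-FRET signal of purified GST-Vif binding a biotinylated A3G peptide; inhibitors lower the FRET signal by blocking Vif and A3G binding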
[2] = biological target: Mitogen-activated protein kinase 10 (Homo sapiens, UniProt P53779); assay: Dose response biochemical screening assay for inhibitors of c-Jun N-Terminal Kinase 3 (JNK3). [Related pubchem assays: 746 ]
[3] = Jurkat T cell cytotoxicity, dose response, cytotoxicity control for P. falciparum gametocyte viability project, luminescence (AID 1117277); format: functional, cell-based;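 note: potency reflects loss of cellular ATP meaning fewer viable cells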
[4] = P. falciparum late gametocyte killing, dose response, luminescence (AID 1117278); format: functional, cell-based;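 note: gametocytes exposed to compound for 24 hours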
[5] = biological target: T3, Aryl hydrocarbon receptor (Homo sapiens, UniProt P35869); assay: Luminescence-based cell-based high throughput dose response assay for activators of the Aryl Hydrocarbon Receptor (AHR). [Related pubchem assays: 2796 (Primary screen (AHR activators in singlicate)), 2845 (Confirmation screen (AHR activators in triplicate)), 434939 (Counterscreen (PXR activators in triplicate)), 2804 (Summary (AHR activators))]; format: ADME
T3 sequence (P35869 whole entry): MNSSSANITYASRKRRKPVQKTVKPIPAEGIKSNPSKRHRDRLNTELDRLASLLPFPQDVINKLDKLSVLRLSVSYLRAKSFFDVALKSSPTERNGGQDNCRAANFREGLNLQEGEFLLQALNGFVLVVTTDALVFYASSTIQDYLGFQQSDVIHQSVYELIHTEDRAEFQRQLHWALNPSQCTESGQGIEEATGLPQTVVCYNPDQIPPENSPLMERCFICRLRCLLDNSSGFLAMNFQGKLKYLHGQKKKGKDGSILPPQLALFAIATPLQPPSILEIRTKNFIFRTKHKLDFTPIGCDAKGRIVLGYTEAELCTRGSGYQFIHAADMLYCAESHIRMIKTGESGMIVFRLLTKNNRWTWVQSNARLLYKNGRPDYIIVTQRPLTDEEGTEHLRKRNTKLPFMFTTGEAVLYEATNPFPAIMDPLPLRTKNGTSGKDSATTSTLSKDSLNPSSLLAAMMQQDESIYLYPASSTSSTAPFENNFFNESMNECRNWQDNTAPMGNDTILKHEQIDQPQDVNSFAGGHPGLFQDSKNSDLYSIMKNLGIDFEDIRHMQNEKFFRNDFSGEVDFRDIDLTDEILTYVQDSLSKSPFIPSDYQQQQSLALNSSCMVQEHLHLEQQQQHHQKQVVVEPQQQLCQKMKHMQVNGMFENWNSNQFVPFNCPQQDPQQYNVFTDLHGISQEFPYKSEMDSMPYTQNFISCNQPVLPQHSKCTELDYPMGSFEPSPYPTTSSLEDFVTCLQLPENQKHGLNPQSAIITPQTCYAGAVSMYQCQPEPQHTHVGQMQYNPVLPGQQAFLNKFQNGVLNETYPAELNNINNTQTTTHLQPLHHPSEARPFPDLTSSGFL

[6] = biological target: Sphingosine 1-phosphate receptor 2 (Homo sapiens, UniProt O95136); assay: Dose Response Cell Based Assay for Antagonists of the S1P2 Receptor. [Related pubchem assays: 856, 736 ]; format: functional
[7] = inhibitors of intracellular T. cruzi replication, confirmation, NIH3T3 host cells, beta-gal luminescence (AID 2044); format: functional, cell-based;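 note: intracellular parasites grown in NIH/3T3 mouse fibroblasts as host cells; luminescent beta-galactosidase reporter signal from transgenic T. cruzi replicating inside host cells; inhibitors lower the luminescence signal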
[8] = cytotoxicity toward NIH3T3 fibroblasts, dose response, counter-screen, cell-based, ATP luminescence, mouse fibroblasts (AID 2010); format: functional;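 note: cells exposed to compound for about 90 hours before reading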
Streptokinase A = biological target: T4, Streptokinase A (Streptococcus pyogenes serotype M1, UniProt P10520); assay: S. pyogenes streptokinase expression inhibitors, potency, dose response, plasminogen activation absorbance, OD405 (AID 1914); format: functional, Streptococcus pyogenes M1 GAS;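 note: secreted streptokinase activity via plasminogen activation per viability signal from cell pellet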
T4 sequence (P10520 whole entry): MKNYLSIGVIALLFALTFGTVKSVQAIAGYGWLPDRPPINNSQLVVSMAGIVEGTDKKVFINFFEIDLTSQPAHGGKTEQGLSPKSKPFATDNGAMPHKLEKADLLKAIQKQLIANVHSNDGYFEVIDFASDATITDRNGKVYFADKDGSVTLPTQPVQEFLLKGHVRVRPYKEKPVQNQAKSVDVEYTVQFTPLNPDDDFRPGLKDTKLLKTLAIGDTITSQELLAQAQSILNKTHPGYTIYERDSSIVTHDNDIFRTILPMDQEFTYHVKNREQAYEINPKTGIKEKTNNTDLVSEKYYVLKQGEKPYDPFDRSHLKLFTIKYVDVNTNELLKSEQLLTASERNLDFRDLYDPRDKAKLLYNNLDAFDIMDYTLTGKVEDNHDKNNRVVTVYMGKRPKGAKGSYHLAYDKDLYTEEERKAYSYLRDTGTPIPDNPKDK

Streptococcus = assay: Group A Streptococcus viability loss, dose response, counter-screen for streptokinase expression inhibitor project, luminescence, BacTiterGlo (AID 1915); format: functional, organism-based;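 note: potency for reduction of bacterial viability or growth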
[9] = tested on: Streptococcus sp. 'group A'; assay: growth inhibition of control SK(-) GAS strain, dose response, counter-screen for streptokinase expression inhibitor project, luminescence, kanamycin, BacTiterGlo, confirmation (AID 1900); format: functional, organism-based
Leucine aminopeptidase = biological target: T5, Leucine aminopeptidase (Plasmodium falciparum 3D7, UniProt Q8IL11); assay: P. falciparum M17LAP inhibitors, primary screen, biochemical, fluorogenic H-Leu-NHMec substrate, 1536-well (AID 1619); format: functional
T5 sequence (Q8IL11 whole entry): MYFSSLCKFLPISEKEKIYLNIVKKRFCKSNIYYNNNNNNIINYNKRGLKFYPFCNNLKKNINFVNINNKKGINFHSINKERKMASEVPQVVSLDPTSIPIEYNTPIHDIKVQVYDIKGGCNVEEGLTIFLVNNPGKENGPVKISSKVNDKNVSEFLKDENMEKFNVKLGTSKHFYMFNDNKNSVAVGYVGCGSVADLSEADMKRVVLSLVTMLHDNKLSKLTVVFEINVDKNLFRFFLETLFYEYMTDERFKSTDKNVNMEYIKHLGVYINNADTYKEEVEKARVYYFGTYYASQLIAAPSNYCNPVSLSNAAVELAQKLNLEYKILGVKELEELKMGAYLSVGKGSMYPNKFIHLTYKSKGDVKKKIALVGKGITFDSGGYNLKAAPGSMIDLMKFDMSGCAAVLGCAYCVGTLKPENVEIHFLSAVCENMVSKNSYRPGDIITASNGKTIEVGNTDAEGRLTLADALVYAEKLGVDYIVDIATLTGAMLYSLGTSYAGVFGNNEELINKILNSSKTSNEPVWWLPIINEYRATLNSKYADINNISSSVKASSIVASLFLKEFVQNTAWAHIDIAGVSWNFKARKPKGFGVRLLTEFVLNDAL

[10] = cytotoxicity toward HCT116 cells – cell-based, CellTiter-Glo luminescence, IC50, dose response (AID 1117332); format: functional; conditions: HCT-116
[11] = CellTiter-Glo luminescent dose response of DLD-1 viability loss (AID 1117352); format: functional
[12] = HCT116 cell viability decrease, GSK3B pretreatment – CellTiter-Glo, IC50, dose response (AID 1117339); format: functional; conditions: HCT-116
[13] = cytotoxicity toward Colo320 cells – cell-based, CellTiter-Glo luminescence, IC50, dose response (AID 1117334); format: functional; conditions: COLO 320
[14] = Concentration-dependent survival of SW480 colon cancer line, luminescence detection with CellTiter-Glo, half-maximal inhibitory concentration (AID 1117338); format: functional
[15] = cytotoxicity toward HT-29 cells – cell-based, CellTiter-Glo luminescence, IC50, dose response (AID 1117330); format: functional
[16] = SNU-C1 cell viability reduction, dose response, CellTiter-Glo luminescence (AID 1117323); format: functional, cell-based
[17] = RKO cell viability reduction, dose response, CellTiter-Glo luminescence (AID 1117322); format: functional
[18] = cytotoxicity in HPDE-C7 cells, cell-based, fluorescence, HTS (AID 430); format: functional; conditions: Homo sapiens
[19] = cytotoxicity in KRAS-transformed pancreatic duct cells, primary screen, cell-based, fluorescence, HTS (AID 431); format: functional; conditions: Homo sapiens;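 note: cell line used: HPDE-C7K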

Mitogen-activated protein kinase 10, sequence (P53779 whole entry): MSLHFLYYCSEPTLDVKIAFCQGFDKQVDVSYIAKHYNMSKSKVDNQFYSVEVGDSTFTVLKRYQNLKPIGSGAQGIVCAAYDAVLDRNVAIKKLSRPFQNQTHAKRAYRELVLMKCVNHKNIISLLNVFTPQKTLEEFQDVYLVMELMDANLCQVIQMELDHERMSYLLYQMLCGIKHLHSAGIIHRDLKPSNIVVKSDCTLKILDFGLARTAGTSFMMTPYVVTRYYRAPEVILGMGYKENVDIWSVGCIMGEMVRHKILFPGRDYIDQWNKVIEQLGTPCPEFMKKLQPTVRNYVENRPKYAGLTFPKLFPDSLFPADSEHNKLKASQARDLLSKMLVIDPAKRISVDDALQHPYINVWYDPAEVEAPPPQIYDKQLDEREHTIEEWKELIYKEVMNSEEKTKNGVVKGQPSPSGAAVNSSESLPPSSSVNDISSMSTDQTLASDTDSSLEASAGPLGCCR
Procathepsin L, sequence (P07711 whole entry): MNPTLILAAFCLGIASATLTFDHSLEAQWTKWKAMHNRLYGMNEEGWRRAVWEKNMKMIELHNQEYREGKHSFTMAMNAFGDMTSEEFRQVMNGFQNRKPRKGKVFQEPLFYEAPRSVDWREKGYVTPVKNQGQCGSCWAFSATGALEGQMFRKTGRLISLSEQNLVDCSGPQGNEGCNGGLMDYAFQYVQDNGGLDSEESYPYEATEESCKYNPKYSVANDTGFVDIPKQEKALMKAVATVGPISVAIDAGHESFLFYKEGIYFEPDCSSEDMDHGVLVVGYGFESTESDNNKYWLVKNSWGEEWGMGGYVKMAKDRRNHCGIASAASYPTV
Sphingosine 1-phosphate receptor 2, sequence (O95136 whole entry): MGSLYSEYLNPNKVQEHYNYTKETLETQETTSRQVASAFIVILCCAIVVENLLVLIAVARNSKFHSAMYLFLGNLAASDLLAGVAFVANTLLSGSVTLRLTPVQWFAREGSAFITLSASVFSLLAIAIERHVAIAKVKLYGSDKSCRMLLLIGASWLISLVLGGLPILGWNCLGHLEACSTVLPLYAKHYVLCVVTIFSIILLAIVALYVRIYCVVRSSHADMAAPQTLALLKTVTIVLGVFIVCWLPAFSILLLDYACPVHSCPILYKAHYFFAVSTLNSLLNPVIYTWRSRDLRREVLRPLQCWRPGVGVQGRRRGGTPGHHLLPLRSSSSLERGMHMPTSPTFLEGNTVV

CC(C)(C)c1nc2ccccc2c(=O)n1N1C(=O)c2ccccc2C1=O
IC50 (Aminopeptidase N): 16.1 µM (active) | IC50 (Aspartyl aminopeptidase): > 73.5 µM (not active) | IC50 (Procathepsin L): > 59.6 µM (not active)

CCC(CC)c1nc2cc(OC)c(OC)cc2c(=O)o1
IC50 [1]: > 100 µM (active)

Cc1cc(NC(=O)CSC2=Nc3ccccc3C3=NC(Cc4ccccc4)C(=O)N23)[nH]n1 (stereo not given)
IC50 [2]: 11.3 µM (not active)

Cc1cc(C)cc(N2CC(C(=O)O)CC2=O)c1 (stereo not given)
IC50 [3]: > 83.4 µM (inactive) | IC50 [4]: > 109 µM (inactive)

COc1ccccc1NC(=O)c1ccc(C(=O)Nc2ccccc2OC)nc1
EC50 [5]: 0.0686 µM (active)

Cn1c(-c2c(N)n(CCCc3ccccc3)c3nc4ccccc4nc23)nc2ccccc21
IC50 [6]: 8 µM (active) | EC50 [7]: 1.17 µM (active) | EC50 [8]: > 30 µM (not active)

O=C(Cc1ccc(-c2ccccc2)cc1)NC1CCCC1
IC50 [3]: > 83.2 µM (inactive) | IC50 [4]: > 109 µM (inactive)

COC(=O)c1c(C#N)c(N)nc2c1CCCC2
IC50 [2]: 60.1 µM (not active)

Cn1c(O)cc(=O)nc1SCC(=O)Nc1cccc2ccccc12
EC50 (Streptokinase A): > 150 µM (not active) | EC50 (Streptococcus): 24.8 µM (active) | EC50 [9]: > 150 µM (not active) | IC50 (Aspartyl aminopeptidase): > 73.5 µM (not active) | IC50 (Procathepsin L): > 59.6 µM (not active) | IC50 (Leucine aminopeptidase): 7.59 µM (active)

CCC=CCC=CCC=CCCCCCCCC(=O)O
IC50 [10]: > 20 µM (inactive) | IC50 [11]: > 20 µM (inactive) | IC50 [12]: > 20 µM (inactive) | IC50 [13]: > 20 µM (inactive) | IC50 [14]: > 20 µM (inactive) | IC50 [15]: > 20 µM (inactive) | IC50 [16]: > 20 µM (inactive) | IC50 [17]: > 20 µM (inactive)

O=c1c2ccccc2[nH]c(=S)n1CCN1CCC(=C(c2ccc(F)cc2)c2ccc(F)cc2)CC1 [DIACYLGLYCEROL KINASE INHIBITOR II]
EC50 [18]: 3.94 µM (active) | EC50 [19]: 4.21 µM (active)
